Measurements as given in patent US20250377351A1, “METHOD FOR IDENTIFYING EFFECTIVE TREATMENTS AGAINST NEURODEGENERATIVE DISORDERS” (AcuraStem Incorporated, priority 2018, published 2025).

What was measured:
Type in all cases: cell-based, human
ALS patient iMNs = test: iMN survival assay in ALS patient motor neurons (line type not specified); conditions: hR vs DMSO
Description: (§1) Daily imaging was performed to collect data at multiple time points over ˜2 weeks, and then analysis of the data enabled single cell longitudinal tracking during the progressive stages of cell death. The hazard ratio (hR) derived from the Cox model is used to indicate the survival rate of neurons, where a ratio greater than 1 indicates a negative association with survival. A P value is also calculated, which functions as a statistical test of the two hazard functions using the Wald test. In addition, a standard deviation, which replicates the hR value, and survival curves are calculated and graphed. […]
(§2) Induced neuron survival assay: Hb9::RFP^+iMNs appeared between days 13-16 after retroviral transduction. […] Neurons were scored as dead when their soma was no longer detectable by RFP fluorescence. All neuron survival assays were performed at least twice, with equal numbers of neurons from three individual replicates from one of the trials being used for the quantification shown. All trials quantified were representative of other trials of the same experiment. […]

sporadic ALS (sALS) iMNs = test: iMN survival assay in sporadic ALS lines; conditions: screen hits
Description: as §1, §2

C9-ALS iMN lines = test: iMN survival assay (longitudinal tracking, hazard ratio vs DMSO) in C9-ALS lines; conditions: 3 μM, 2 weeks, media change every 3 days, three C9-ALS iMN lines
Description: as §1, §2

[1] = system: healthy control iMN lines; test: iMN survival assay in healthy control lines; conditions: 1 μM, 3 weeks, five healthy control lines
Description: as §1, §2

## CC1=NN(c2ccccc2)C(=O)C1 [edaravone]
ALS patient iMNs
  performance in patient motor neurons (hR) of drugs tested in ALS clinical trials: do best

## Cc1cccc(/C=N/Nc2cc(N3CCOCC3)nc(OCCc3ccccn3)n2)c1 [Apilimod]
Sporadic ALS (sALS) iMNs
  potency among hit compounds efficacious against sporadic ALS patient iMNs: among the most potent
C9-ALS iMN lines
  iMN survival, hazard ratio of treatment vs DMSO: significant beneficial effect
[1]
  iMN survival, treatment vs DMSO group: No significance difference

## Nc1nc2ccc(OC(F)(F)F)cc2s1 [riluzole]
ALS patient iMNs
  performance in patient motor neurons (hR) of drugs tested in ALS clinical trials: do best
